For assay [1], the target named is human CCR5 stably over-expressing CHO cell (CCR5/CHO cell) (Homo sapiens, UniProt P51681). Nature of the assay: Inhibition test on the binding of RANTES to CCR5 (RANTES-induced transient increase of Ca ion). Format: cell-based. Conditions: inhibition of Ca2+ transient increase induced by 10 nM recombinant human RANTES in CCR5/CHO cells.
Experimental: (1) Isolation of Human CCR5 Gene
Human placental cDNA was prepared using Marathon cDNA amplification kit (Clontech). PCR primers hCCR5XbaI-F1: 5′-[sequence]-3′ (SEQ ID NO:1) and hCCR5XbaI-R1: 5′-[sequence]-3′ (SEQ ID NO:2) were designed based on the sequence of GenBank U54994.
Using the human placental cDNA as the template and using Ex Taq (Takara), PCR reaction (2 minutes at 95° C.→(30 seconds at 95° C., 45 seconds at 60° C., 1 minute at 72° C.)×35 times) was carried out. The thus amplified PCR product was subjected to a 1% agarose gel electrophoresis, purified using QIAquick Gel Extraction Kit (QUIAGEN) and then digested with a restriction enzyme XbaI. […] By preparing the resulting plasmid pEF-BOS-bsr/hCCR5, its DNA sequence was verified. […]
The thus established human CCR5 stably over-expressing CHO cell (CCR5/CHO cell) was suspended in Ham's F-12 medium containing FBS (10%) and dispensed in 3.0×10^6 cells/well portions into a 96 well plate. […] Transient increase in the intracellular Ca^2+ concentration induced by the human RANTES was measured using a Ca^2+ detector for 96 well use (Hamamatsu Photonics), and inhibition ratio (%) of the test compound was calculated by the following calculation formula. Inhibition ratio=(Ec−Ea)/Ec×100 • Ec: measured value of Ca^2+ transient increase by RANTES • Ea: measured value of Ca^2+ transient increase by RANTES when a test compound was added
The target in assay [2] is T1, human CCR2-expressing cell, human monocyte cell strain THP-1 (Homo sapiens, UniProt P41597).
T1 construct: A human CCR2-expressing cell, e.g., a human monocyte cell strain THP-1 (ATCC No. TIB-202); host or cells: THP-1
T1 sequence (P41597 1-360 isoform P41597-2): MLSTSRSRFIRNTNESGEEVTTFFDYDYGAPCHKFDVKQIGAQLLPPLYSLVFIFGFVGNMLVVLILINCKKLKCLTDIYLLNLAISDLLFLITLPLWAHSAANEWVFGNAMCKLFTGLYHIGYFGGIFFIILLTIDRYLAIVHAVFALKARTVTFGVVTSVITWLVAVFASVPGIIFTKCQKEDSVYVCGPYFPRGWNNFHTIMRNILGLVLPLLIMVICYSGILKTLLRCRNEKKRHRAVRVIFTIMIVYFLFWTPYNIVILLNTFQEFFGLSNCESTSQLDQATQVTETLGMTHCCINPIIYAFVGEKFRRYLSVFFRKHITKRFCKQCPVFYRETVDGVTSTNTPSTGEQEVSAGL
Nature of the assay: Inhibition test on the binding of MCP-1 to CCR2 (MCP-1-induced transient increase of Ca ion). Format: cell-based. Conditions: inhibition of Ca2+ transient increase induced by 30 nM recombinant human MCP-1 in THP-1 cells. An excerpt: An assay system for finding a compound having adsorption inhibition effect on CCR5 directional HIV strain was described in the foregoing, and it is possible as a matter of course to find a compound capable of inhibiting the activity of CCR5 or a ligand thereof using this system. In the same manner, it is possible to find a compound capable of inhibiting the activity of other chemokine receptor or a ligand thereof. For example, a system for finding a compound capable of inhibiting the activity of CCR2 or a ligand thereof can be constructed. […]
A human CCR2-expressing cell, e.g., a human monocyte cell strain THP-1 (ATCC No. TIB-202), was suspended in RPMI 1640 medium containing FBS (10%), Fura-2AM (5 μM), Probenecid (2.5 mM) and HEPES (20 mM, pH 7.4) to a density of 5.0×10^6 cells/ml and incubated at 37° C. for 30 minutes under shaded condition. […] Transient increase in the intracellular Ca 2+concentration induced by the human MCP-1 was measured using a Ca^2+ detector for 96 well use (Hamamatsu Photonics), and inhibition ratio (%) of the test compound was calculated by the following calculation formula. Inhibition ratio=(Ec−Ea)/Ec×100 • Ec: measured value of Ca^2+ transient increase by MCP-1 • Ea: measured value of Ca^2+ transient increase by MCP-1 when a test compound was added

Structures are written as SMILES. Where a name gives a salt, the structure may show the parent alone.

This note sets out measurements from patent publication US7119091B2, “Triazaspiro[5.5]undecane derivatives and pharmaceutical compositions comprising thereof, as an active ingredient” (Ono Pharmaceutical Co., Ltd., priority 1999, dated 2006).

Sequence of human CCR5 stably over-expressing CHO cell (CCR5/CHO cell) (P51681 whole entry): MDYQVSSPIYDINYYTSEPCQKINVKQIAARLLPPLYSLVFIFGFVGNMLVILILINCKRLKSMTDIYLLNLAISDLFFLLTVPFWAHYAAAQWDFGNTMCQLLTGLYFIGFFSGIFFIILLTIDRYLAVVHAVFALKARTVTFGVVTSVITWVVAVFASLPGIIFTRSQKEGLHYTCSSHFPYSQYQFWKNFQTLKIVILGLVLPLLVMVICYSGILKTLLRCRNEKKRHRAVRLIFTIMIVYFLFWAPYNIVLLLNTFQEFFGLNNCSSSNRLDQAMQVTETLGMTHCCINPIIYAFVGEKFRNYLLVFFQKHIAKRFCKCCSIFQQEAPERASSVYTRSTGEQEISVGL

As to `CCCCN1C(=O)C(CC2CCCCC2)NC(=O)C12CCN(Cc1ccc3c(c1)OCCO3)CC2` (stereo not drawn) [Example 2(1), 9-(1,4-benzodioxan-6-ylmethyl)-1-butyl-3-cyclohexylmethyl-2,5-dioxo-1,4,9-triazaspiro[5.5]undecane.hydrochloride], the IC50 (in general, the point on the concentration scale where inhibition reaches its midpoint) in assay [1] is 50 nM. On the same count and under the same terms, under `CCCCN1C(=O)C(CC2CCCCC2)NC(=O)C12CCN(Cc1c[nH]c(-c3ccccc3)n1)CC2` (stereo not drawn) [Example 2(2), 1-butyl-3-cyclohexylmethyl-2,5-dioxo-9-(2-phenylimidazol-4-ylmethyl)-1,4,9-triazaspiro[5.5]undecane.2 hydrochloride] stands 50 nM. Take `CCCN1C(=O)[C@H](CCCCNC(=O)OCc2ccccc2)NC(=O)C12CCN(CCc1ccccc1)CC2` [Example 5(2), (3S)-1-propyl-2,5-dioxo-3-(4-(N-benzyloxycarbonyl)aminobutyl)-9-(2-phenylethyl)-1,4,9-triazaspiro[5.5]undecane.hydrochloride]: the half-maximal inhibitory concentration (IC50) in assay [2] turned out to be 3000 nM.
